Laboratory results reported in US11541055B2, “Inhibitors of human immunodeficiency virus replication” (ViiV Healthcare UK (No. 5) LIMITED, priority 2018, dated 2023).

Legend:
[1] = tested on: recombinant NL4-3 virus (Renilla luciferase) in MT-2 cells; assay: HIV cell culture assay (antiviral activity, luciferase readout); assay type: cell-based; settings: Renilla, NL43
How it was run: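 Antiviral EC50 was derived via the median effect equation from luciferase signal. The signal came from MT-2 cultures infected for 4–5 days with a nef-deleted, Renilla luciferase-expressing NL4-3 reporter virus (made in 293T cells) in the presence of compound dilutions.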

[2] = Compound cytotoxicity, XTT-based colorimetric assay; assay type: cell-based; settings: human; uninfected MT2 cells, day 4, XTT
How it was run: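 Run under the antiviral-assay protocol but without virus. Viability was read on day 4 and CC50 values were derived from the readout.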

SMILES | EC50 [1] | CC50 at 4 days [2]
Cn1nc(NS(C)(=O)=O)c2c(Cl)ccc(-n3c([C@H](Cc4cc(F)cc(F)c4)NC(=O)Cn4nc(C(F)F)c5c4C(F)(F)[C@@H]4C[C@H]54)nc4cc(-c5cc(C(F)(F)F)cc(C(F)(F)F)n5)ccc4c3=O)c21 (atropisomer, axis not shown; (P)) [Example 58, N—((S)-1-(7-(4,6-bis(trifluoromethyl)pyridin-2-yl)-(3P)-3-(4-chloro-1-methyl-3-(methylsulfonamido)-1H-indazol-7-yl)-4-oxo-3,4-dihydroquinazolin-2-yl)-2-(3,5-difluorophenyl)ethyl)-2-((3bS,4aR)-3-(difluoromethyl)-5,5-difluoro-3b,4,4a,5-tetrahydro-1H-cyclopropa[3,4]cyclopenta[1,2-c]pyrazol-1-yl)acetamide] | 0.95 nM | > 500 nM
COc1cc(C(F)(F)F)nc(-c2ccc3c(=O)n(-c4ccc(Cl)c5c(NS(C)(=O)=O)nn(C)c45)c([C@H](Cc4cc(F)cc(F)c4)NC(=O)Cn4nc(C(F)F)c5c4C(F)(F)[C@@H]4C[C@H]54)nc3c2)n1 (atropisomer, axis not shown; (P)) [Example 54, N—((S)-1-((3P)-3-(4-chloro-1-methyl-3-(methylsulfonamido)-1H-indazol-7-yl)-7-(4-methoxy-6-(trifluoromethyl)pyrimidin-2-yl)-4-oxo-3,4-dihydroquinazolin-2-yl)-2-(3,5-difluorophenyl)ethyl)-2-((3bS,4aR)-3-(difluoromethyl)-5,5-difluoro-3b,4,4a,5-tetrahydro-1H-cyclopropa[3,4]cyclopenta[1,2-c]pyrazol-1-yl)acetamide] | 0.31 nM | > 500 nM
COc1ncc(-c2ccc3c(=O)n(-c4ccc(Cl)c5c(NS(=O)(=O)C6CC6)nn(CC(F)F)c45)c([C@H](Cc4cc(F)cc(F)c4)NC(=O)Cn4nc(C(F)F)c5c4C(F)(F)[C@@H]4C[C@H]54)nc3c2)cn1 (atropisomer, axis not shown) [Example 99] | 0.089 nM | > 500 nM
Cc1ncc(-c2ccc3c(=O)n(-c4ccc(Cl)c5c(NS(C)(=O)=O)nn(CC(F)F)c45)c([C@H](Cc4cc(F)cc(F)c4)NC(=O)Cn4nc(C(F)F)c5c4C(F)(F)[C@@H]4C[C@H]54)nc3c2)s1 (atropisomer, axis not shown) [Example 123, N-[(1S)-1-{3-[4-chloro-1-(2,2-difluoroethyl)-3-methanesulfonamido-1H-indazol-7-yl]-7-(2-methyl-1,3-thiazol-5-yl)-4-oxo-3,4-dihydroquinazolin-2-yl}-2-(3,5-difluorophenyl)ethyl]-2-[(2S,4R)-9-(difluoromethyl)-5,5-difluoro-7,8-diazatricyclo[4.3.0.0^2,^4]nona-1(6),8-dien-7-yl]acetamide] | 0.087 nM | > 500 nM
Cc1ccc(F)c(-c2ccc3c(=O)n(-c4ccc(Cl)c5c(NS(=O)(=O)C6CC6)nn(CC(F)F)c45)c([C@H](Cc4cc(F)cc(F)c4)NC(=O)Cn4nc(C(F)F)c5c4C(F)(F)[C@@H]4C[C@H]54)nc3c2)n1 (atropisomer, axis not shown) [Example 96, N-[(1S)-1-{3-[4-chloro-3-cyclopropanesulfonamido-1-(2,2-difluoroethyl)-1H-indazol-7-yl]-7-(3-fluoro-6-methylpyridin-2-yl)-4-oxo-3,4-dihydroquinazolin-2-yl}-2-(3,5-difluorophenyl)ethyl]-2-[(2S,4R)-9-(difluoromethyl)-5,5-difluoro-7,8-diazatricyclo[4.3.0.0^2,^4]nona-1(6),8-dien-7-yl]acetamide] | 0.24 nM | > 500 nM
CC(C)c1nccc(-c2ccc3c(=O)n(-c4ccc(Cl)c5c(NS(C)(=O)=O)nn(C)c45)c([C@H](Cc4cc(F)cc(F)c4)NC(=O)Cn4nc(C(F)F)c5c4C(F)(F)[C@@H]4C[C@H]54)nc3c2)n1 (atropisomer, axis not shown; (P)) [Example 67, N—((S)-1-((3P)-3-(4-chloro-1-methyl-3-(methylsulfonamido)-1H-indazol-7-yl)-7-(2-isopropylpyrimidin-4-yl)-4-oxo-3,4-dihydroquinazolin-2-yl)-2-(3,5-difluorophenyl)ethyl)-2-((3bS,4aR)-3-(difluoromethyl)-5,5-difluoro-3b,4,4a,5-tetrahydro-1H-cyclopropa[3,4]cyclopenta[1,2-c]pyrazol-1-yl)acetamide] | 0.15 nM | > 500 nM
COc1cnc(C)nc1-c1ccc2c(=O)n(-c3ccc(Cl)c4c(NS(C)(=O)=O)nn(C)c34)c([C@H](Cc3cc(F)cc(F)c3)NC(=O)Cn3nc(C(F)F)c4c3C(F)(F)[C@@H]3C[C@H]43)nc2c1 (atropisomer, axis not shown; (P)) [Example 9, N—((S)-1-((3P)-3-(4-chloro-1-methyl-3-(methylsulfonamido)-1H-indazol-7-yl)-7-(5-methoxy-2-methylpyrimidin-4-yl)-4-oxo-3,4-dihydroquinazolin-2-yl)-2-(3,5-difluorophenyl)ethyl)-2-((3bS,4aR)-3-(difluoromethyl)-5,5-difluoro-3b,4,4a,5-tetrahydro-1H-cyclopropa[3,4]cyclopenta[1,2-c]pyrazol-1-yl)acetamide] | 0.058 nM | > 500 nM
CS(=O)(=O)Nc1nn(CC(F)(F)F)c2c(-n3c([C@H](Cc4cc(F)cc(F)c4)NC(=O)Cn4nc(C(F)F)c5c4C(F)(F)[C@@H]4C[C@H]54)nc4cc(-c5cccnn5)ccc4c3=O)ccc(Cl)c12 (atropisomer, axis not shown) [Example 107, N-[(1S)-1-{3-[4-chloro-3-methanesulfonamido-1-(2,2,2-trifluoroethyl)-1H-indazol-7-yl]-4-oxo-7-(pyridazin-3-yl)-3,4-dihydroquinazolin-2-yl}-2-(3,5-difluoropheny)ethyl]-2-[(2S,4R)-9-(difluoromethyl)-5,5-difluoro-7,8-diazatricyclo[4.3.0.0^2,^4]nona-1(6),8-dien-7-yl]acetamide] | 0.048 nM | > 500 nM
Cc1ncncc1-c1ccc2c(=O)n(-c3ccc(Cl)c4c(NS(C)(=O)=O)nn(C)c34)c([C@H](Cc3cc(F)cc(F)c3)NC(=O)Cn3nc(C(F)F)c4c3C(F)(F)[C@@H]3C[C@H]43)nc2c1 (atropisomer, axis not shown; (P)) [Example 42, N—((S)-1-((3P)-3-(4-chloro-1-methyl-3-(methylsulfonamido)-1H-indazol-7-yl)-7-(4-methylpyrimidin-5-yl)-4-oxo-3,4-dihydroquinazolin-2-yl)-2-(3,5-difluorophenyl)ethyl)-2-((3bS,4aR)-3-(difluoromethyl)-5,5-difluoro-3b,4,4a,5-tetrahydro-1H-cyclopropa[3,4]cyclopenta[1,2-c]pyrazol-1-yl)acetamide] | 0.074 nM | > 500 nM
CS(=O)(=O)Nc1nn(CC(F)F)c2c(-n3c([C@H](Cc4cc(F)cc(F)c4)NC(=O)Cn4nc(C(F)F)c5c4C(F)(F)[C@@H]4C[C@H]54)nc4cc(-c5ncccc5S(C)(=O)=O)ccc4c3=O)ccc(Cl)c12 (atropisomer, axis not shown) [Example 136, N-[(1S)-1-{3-[4-chloro-1-(2,2-difluoroethyl)-3-methanesulfonamido-1H-indazol-7-yl]-7-(3-methanesulfonylpyridin-2-yl)-4-oxo-3,4-dihydroquinazolin-2-yl}-2-(3,5-difluorophenyl)ethyl]-2-[(2S,4R)-9-(difluoromethyl)-5,5-difluoro-7,8-diazatricyclo[4.3.0.0^2,^4]nona-1(6),8-dien-7-yl]acetamide] | 0.046 nM | > 500 nM
